The source of these data is patent publication US8933063B2, “Preparation of a crystalline antibiotic substance” (Leo Pharma A/S, priority 2005, dated 2015).

This data set is described as follows: Stability assay: six month storage stability of polymorphic forms of fusidic acid (HPLC). The data set is classed as physicochemical. The settings on record: for HPLC-assay (% of origin) / Impurities total (%): after 6 month storage at 40° C., solid crystal form.

Regarding `CC(=O)O[C@H]1C[C@@]2(C)[C@@H](C[C@@H](O)[C@H]3[C@@]4(C)CC[C@@H](O)[C@@H](C)[C@@H]4CC[C@@]32C)/C1=C(\CCC=C(C)C)C(=O)O` [Fusidic acid form I from ES 2208110, Fusidic acid], the “HPLC-assay (% of origin)” value is given as 98.2 % of origin and the “Impurities total (%)” value was determined as 1.0%.

Take `CC(=O)O[C@H]1C[C@@]2(C)[C@@H](C[C@@H](O)[C@H]3[C@@]4(C)CC[C@@H](O)[C@@H](C)[C@@H]4CC[C@@]32C)/C1=C(\CCC=C(C)C)C(=O)O` [Fusidic acid form II from ES 2208110, Fusidic acid]: the “HPLC-assay (% of origin)” value was 88.2 % of origin and the “Impurities total (%)” value came out at 5.2%.

Turning to `CC(=O)O[C@H]1C[C@@]2(C)[C@@H](C[C@@H](O)[C@H]3[C@@]4(C)CC[C@@H](O)[C@@H](C)[C@@H]4CC[C@@]32C)/C1=C(\CCC=C(C)C)C(=O)O` [Fusidic acid hemihydrate], under “hemihydrate”, the “HPLC-assay (% of origin)” value was 87.7 % of origin and the “Impurities total (%)” value is 8.7%.

Regarding `CC(=O)O[C@H]1C[C@@]2(C)[C@@H](C[C@@H](O)[C@H]3[C@@]4(C)CC[C@@H](O)[C@@H](C)[C@@H]4CC[C@@]32C)/C1=C(\CCC=C(C)C)C(=O)O` [Fusidic acid of the present invention, Fusidic acid], the “HPLC-assay (% of origin)” value is on record as 99.2 % of origin and the “Impurities total (%)” value turned out to be 0.1%. Moreover, the “Relative stability among known forms of fusidic acid” value (comparative six month standard stability study) is “most stable form”.
